How the values were obtained:
Test in all cases: drug sensitivity score (DSS) (DSS (unitless, 0-50 scale)); higher = more sensitive (stronger viability inhibition); extreme values may be limits of the assay
Details in all cases: 72 h; culture: 2D
Bowes = tested on: Bowes
Summary of the method: (§1)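 Viability was measured by CellTiter-Glo luminescence after 72 h at 37 °C in 384-well plates holding a 527-compound oncology library, with patient-derived melanoma cultures (1000–1500 cells per well) and melanoma cell lines grown in 2D. Every compound was tested at five concentrations spanning a 10,000-fold range. The drug sensitivity score, a modified area under the curve, came from dose-response curves fitted with in-house Breeze software.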

FM-MEL-6 = tested on: FM-MEL-6
Summary of the method: as §1

FM-MEL-2 = tested on: FM-MEL-2
Summary of the method: as §1

SK-MEL-2 = tested on: SK-MEL-2
Summary of the method: as §1

WM852 = tested on: WM852
Summary of the method: as §1

SK-MEL-28 = tested on: SK-MEL-28
Summary of the method: as §1

WM165 = tested on: WM165
Summary of the method: as §1

FM-MEL-3 = tested on: FM-MEL-3
Summary of the method: as §1

SMILES	drug sensitivity score (Bowes)	drug sensitivity score (FM-MEL-6)	drug sensitivity score (FM-MEL-2)	drug sensitivity score (SK-MEL-2)	drug sensitivity score (WM852)	drug sensitivity score (SK-MEL-28)	drug sensitivity score (WM165)	drug sensitivity score (FM-MEL-3)
COCCNCc1ccc(-c2cc3nccc(Oc4ccc(NC(=S)NC(=O)Cc5ccc(F)cc5)cc4F)c3s2)nc1 [Glesatinib]	0	0	0.4	0	0	0	0	0
CC(C)(C)NC(=O)[C@H]1CC[C@H]2[C@@H]3CC[C@H]4NC(=O)C=C[C@]4(C)[C@H]3CC[C@]12C [Finasteride]	0	0	0	0	0	0	0	0
COc1cc2c(NC3CCN(C(C)C)CC3)nc(N3CCC(F)(F)CC3)nc2cc1OCCCN1CCCC1 [UNC0642]	4	2.5	4.5	4.1	5.1	2	4.5	0.7
NC(=O)NO [Hydroxyurea]	2.4	2.2	0	0	0	0	0.1	6.8
Nc1ncnc2c1nc(Cl)n2[C@@H]1O[C@H](CO)[C@@H](O)[C@H]1O [8-chloro-adenosine]	5.2	7.5	0.9	7.7	4.6	5.1	14.8	3.3
CCN(c1cc(-c2ccc(CN3CCOCC3)cc2)cc(C(=O)NCc2c(C)cc(C)[nH]c2=O)c1C)C1CCOCC1 [Tazemetostat]	1.5	1.3	0	0	0	0	0	0
CN1CCC(CNc2ccc3ncc(-c4cccc(OC(F)(F)F)c4)n3n2)CC1 [SGI-1776]	5.5	5.3	5.9	4.8	6.1	6.1	6.1	5.1
COc1ccc(-c2nc(N3CCOCC3)c3sc(CN(C)c4ncc(C(=O)NO)cn4)cc3n2)cn1 [CUDC-907]	22.5	32.8	33.1	33.1	20.8	28	38.5	36.9
Cc1c(C(=O)Nc2ccc(N3C[C@@H](C)O[C@@H](C)C3)nc2)cccc1-c1ccc(OC(F)(F)F)cc1 [Sonidegib]	4.1	0.1	1.5	0	2.5	0	0.2	4.1
Nc1nc2[nH]cnc2c(=S)[nH]1 [Thioguanine]	8.5	2.6	5.4	3.5	6.8	4.3	12.8	0
OC[C@H]1O[C@@H](n2cnc3c2N=CNC[C@H]3O)C[C@@H]1O [Pentostatin]	0	0	0	0	0	0	0	1.8
c1cc(CN2CCCNCCNCCCNCC2)ccc1CN1CCCNCCNCCCNCC1 [Plerixafor]	0	0	0	0	0	0	0	0
O=C(/C=C/c1cccnc1)NCCCCC1CCN(C(=O)c2ccccc2)CC1 [Daporinad]	32.7	10.3	16.6	11.3	27.1	16.8	17.5	14.5
CN1CCc2c(c3ccccc3n2Cc2ccc(C(=O)NO)cc2)C1 [Tubastatin A]	2	0	0.6	1	0	1.3	2.2	0.6
CC(O)c1cc(C(=O)N[C@@H](C)Cn2ccc(-c3ccc(C#N)c(Cl)c3)n2)n[nH]1 (stereo partly drawn) [ODM-201]	1.3	1.1	0	0	0.2	0	0	2.8
CC[C@@H]1[C@H](F)C(=O)N[C@@H]1COc1nccc2cc(C(N)=O)c(OC)cc12	1.4	0	1.1	0	0.6	0	1.7	0.2
Cc1c2oc3c(C)ccc(C(=O)N[C@@H]4C(=O)N[C@H](C(C)C)C(=O)N5CCC[C@H]5C(=O)N(C)CC(=O)N(C)[C@@H](C(C)C)C(=O)O[C@@H]4C)c3nc-2c(C(=O)N[C@@H]2C(=O)N[C@H](C(C)C)C(=O)N3CCC[C@H]3C(=O)N(C)CC(=O)N(C)[C@@H](C(C)C)C(=O)O[C@@H]2C)c(N)c1=O [Dactinomycin]	24.4	25.9	16.9	30.1	24.2	22.2	37.9	23.5
C1=N/C2=N/c3ccc(OCCN4CCCC4)c(c3)COC/C=C/COCc3cccc(c3)C(=C1)N2 [Pacritinib]	16.8	7.7	9.8	5.4	9.1	9.8	9.8	9.5
Oc1ncnc2[nH]ncc12 [Allopurinol]	0	0	0	0	0	0	0	0
CC[C@]12C=CCN3CC[C@@]4(c5cc([C@@]6(C(=O)OC)C[C@@H]7C[C@@H](C(C)(F)F)CN(Cc8c6[nH]c6ccccc86)C7)c(OC)cc5N(C)[C@H]4[C@@](O)(C(=O)OC)[C@@H]1OC(C)=O)[C@@H]32 [Vinflunine]	3.6	3.8	1	2.7	3.5	3.5	4.6	3.2
O=C(O)CCCCC(CCSCc1ccccc1)SCc1ccccc1 (stereo not drawn) [CPI-613]	0	0	0	0	0	0	0	0

SMILES	drug sensitivity score (Bowes)	drug sensitivity score (FM-MEL-6)	drug sensitivity score (FM-MEL-2)	drug sensitivity score (SK-MEL-2)	drug sensitivity score (WM852)	drug sensitivity score (SK-MEL-28)	drug sensitivity score (WM165)	drug sensitivity score (FM-MEL-3)
S=C(NCc1ccc2c(c1)OCO2)N1CCN(c2ncnc3c2oc2ccccc23)CC1 [Amuvatinib]	3.9	0	0	0	6.6	0	1.2	4.9
O=C1Cc2cc(C(=O)NC3C[C@H]4CC[C@@H](C3)N4S(=O)(=O)CC3CCN(CCCC(F)(F)F)CC3)c(Cl)cc2N1 (stereo partly drawn)	0.3	0	0	0	0	0.2	0	0.7
Cc1nc(Nc2n[nH]c3c2CN(C(=O)N[C@H](CN(C)C)c2ccccc2)C3(C)C)c2sccc2n1	18.6	14.8	11.8	12.3	9.9	18.4	26.9	17.5
C=CC(=O)N1CCC[C@@H](n2nc(-c3ccc(Oc4ccccc4)cc3)c3c(N)ncnc32)C1 [Ibrutinib]	2.8	0	0.2	0	0	0	0	0
CC/C(=C(\c1ccccc1)c1ccc(OCCN(C)C)cc1)c1ccccc1 [Tamoxifen]	0	4.4	3.7	0	2.3	2.4	3.8	5.6
CC[C@@H]1C(=O)OC[C@@H]1Cc1cncn1C [Pilocarpine]	0	0	0	0	0	0	0	1.5
COc1ccc(COc2cc3oc(=O)c4cc(C(C)O)ccc4c3cc2OC)cc1 (stereo not drawn) [Palomid-529]	0	0.1	0.1	0	0	0	0	0.7
C[C@H]1C[C@@H](n2c(Nc3ccc(OC(F)(F)F)cc3)nc3cc(CCC(=O)O)ccc32)CC(C)(C)C1	0	0	0	0	0	0	0	4.5
Cc1ccc(NS(=O)(=O)c2cccc(C#N)c2)c2[nH]cc(C#N)c12 [E7820]	0	0.7	1.9	0	0	0	5.3	5.5
CNC(=O)c1cccc(-c2ccc3c(N4CCOC[C@@H]4C)nc(N4CCOC[C@@H]4C)nc3n2)c1 [Vistusertib]	14	12.6	11	8.8	8.5	12.1	12.5	11.6
O=C1c2c(O)ccc(O)c2C(=O)c2c(NCCNCCO)ccc(NCCNCCO)c21 [Mitoxantrone]	6.7	5.4	7.1	3.4	5.5	6.1	16.8	3.9
CC[C@@H](C(=O)[C@@H](C)[C@@H](O)[C@H](C)[C@@H]1O[C@@H]([C@@H](CC)C(=O)O)CC[C@@H]1C)[C@H]1O[C@]2(C=C[C@@H](O)[C@]3(CC[C@@](C)([C@H]4CC[C@](O)(CC)[C@H](C)O4)O3)O2)[C@H](C)C[C@@H]1C [Salinomycin]	19.1	13.2	6.4	2.1	9.9	9.5	18.3	6.9
COCCOc1cnc2ccn([C@H](C)c3nnc4c(F)cc(-c5cnn(C)c5)cn34)c(=O)c2c1 [AMG-337]	0	0	0	0	0	0	0	0
CNC(=O)c1ccc(-c2cnc3ncc(Cc4ccc5ncccc5c4)n3n2)cc1F [Capmatinib]	0	0	0	0	0	0	0	0
C=CC(=O)N1CC/C(=C\c2ccc(F)c([N+](=O)[O-])c2)C(=O)/C(=C/c2ccc(F)c([N+](=O)[O-])c2)C1 [VLX1570]	23.8	2.4	7.8	14.9	18.8	15.8	24	18.6
Cc1ccc(-c2cc(C(F)(F)F)nn2-c2ccc(S(N)(=O)=O)cc2)cc1 [Celecoxib]	0	0	0	0	0	0	0	0
COc1cc(Nc2ncc3c(n2)-c2ccc(Cl)cc2C(c2c(F)cccc2OC)=NC3)ccc1C(=O)O [Alisertib]	18.5	0.5	0.5	0	0	3.2	13.7	3.1
Cn1cc(C2=C(c3cn(C4CCN(Cc5ccccn5)CC4)c4ccccc34)C(=O)NC2=O)c2ccccc21 [Enzastaurin]	0	0	1.7	0.2	2.1	0	0	3.7
CCC1(c2ccc(N)cc2)CCC(=O)NC1=O (stereo not drawn) [Aminoglutethimide]	0	0	0	0	0	0	0	0
CCCOc1ccn2c(C(C)=O)cc(-c3ccccc3S(C)(=O)=O)c2c1 [GSK2801]	0.7	0	0.1	0	0	0	0	0

Source: the supplement of paper PMC8633005
